Drawing on ChEMBL document CHEMBL4732046, “A red-light-activated sulfonamide porphycene for highly efficient photodynamic therapy against hypoxic tumor” (Eur J Med Chem, 2021), this text covers Activity, Drug uptake and DC50 for 1 molecule.

In data set [1] the test system is A-375. In words: Induction of mitochondrial membrane potential disruption in human A-375 cells assessed as reduction in red fluorescence upto 300 nM irradiated with 640 +/- 15 nm red LED for 1 hrs measured after 24 hrs by JC1 staining based fluorescence microscopy. The format is functional, cell-based. The conditions noted are these: dose nM <=300, time 24.0 hrs.

The test system of data set [2] is B16. In words: Induction of mitochondrial membrane potential disruption in mouse B16 cells assessed as reduction in red fluorescence upto 400 nM irradiated with 640 +/- 15 nm red LED for 1 hrs measured after 24 hrs by JC1 staining based fluorescence microscopy. The conditions noted are these: dose nM <=400, time 24.0 hrs. The format is functional, cell-based.
Data set [3] relates to B16. In words: Induction of morphological changes in mouse B16 cells assessed as chromatin condensation at 200 to 400 nM incubated for 24 hrs by Hoechst 33258 staining based assay. The class given is functional, cell-based. As to conditions: dose 200-400 nM.
In data set [4] the test system is A-375. In words: Antitumor activity against human A-375 cells xenografted in BALB/c mouse assessed as reduction in tumor volume at 50 uM, IT once every 2 days for 2 weeks followed every dosing irradiated with 640 +/- 15 nm red LED for 4 hrs. The format is functional, cell-based. For orientation: Xenograft models place foreign cells or tissue in a host animal.
The test system of data set [5] is A-375. Briefly: Induction of apoptosis in human A-375 cells assessed as increase in cleaved caspase 9 level at 100 to 300 nM irradiated with 640 +/- 15 nm red LED for 1 hrs measured after 24 hrs by Western blot analysis. The format is functional, cell-based. The conditions noted are these: dose 100-300 nM. For orientation: Immunoblotting shows a protein as a band on a membrane.

Data set [6] can be described thus: Drug uptake in human A-375 cells mitochondria incubated for 24 hrs by mito-tracker green based confocal microscopic method. The class given is ADME. The conditions noted are these: a-375, 24 h.
Data set [7] in a line: Toxicity in C57BL/6 mouse assessed as effect on blood urea nitrogen level measured upto 14 days. The conditions noted are these: in vivo, 336 h, time <=14 day.
A short description of data set [8]: Toxicity in C57BL/6 mouse xenografted with mouse B16 cells assessed as body weight at high dose intratumorally once every 2 days for 2 weeks followed every dosing irradiated with 640 +/- 15 nm red LED for 4 hrs measured after 14 days treatment. The conditions noted are these: in vivo, other, 336 h, time 14 day.
Data set [9] is described as follows: Toxicity in C57BL/6 mouse model assessed as change in white blood cell count measured after 14 days. The class given is tissue-based. As to conditions: 336 h, time 14 day.
Data set [10] concerns A-375. Briefly: Induction of apoptosis in human A-375 cells assessed as decrease in Bid level at 100 to 300 nM irradiated with 640 +/- 15 nm red LED for 1 hrs measured after 24 hrs by Western blot analysis. The class given is functional, cell-based. The conditions noted are these: dose 100-300 nM.
The test system of data set [11] is A-375. In words: Induction of intracellular reactive oxygen species production in human A-375 cells assessed as […] membrane damage at 200 nM irradiated with 640 +/- 15 nm red LED for 1 hr measured after 4 hrs by mito-tracker green based confocal microscopic method. The class given is functional, cell-based.
Data set [12] is described as follows: Toxicity in C57BL/6 mouse model assessed as change in platelet count measured after 14 days. The conditions noted are these: 336 h, time 14 day.
Data set [13] can be described thus: Toxicity in C57BL/6 mouse assessed as effect on aspartate aminotransferase level measured after 2 days. The conditions noted are these: in vivo, 48 h, time 2 day.
Data set [14] relates to B16. In words: Induction of apoptosis in mouse B16 cells assessed as increase in Bad level at 200 to 400 nM irradiated with 640 +/- 15 nm red LED for 1 hrs measured after 24 hrs by Western blot analysis. The class given is functional, cell-based. As to conditions: dose 200-400 nM.
The next data set deals with HeLa. Briefly: Photocytotoxicity against human HeLa cells assessed as reduction in cell viability irradiated with 640 +/- 15 nm red LED for 4 hrs measured after 24 hrs under hypoxic condition by MTT assay. The format is functional, cell-based. As to conditions: light or radiation study. A general note: Tetrazolium assays rely on reduction of a dye to a coloured formazan, in cell work by metabolically active cells.

Data set [15] concerns A-375. In words: Photocytotoxicity against human A-375 cells assessed as reduction in cell viability irradiated with 640 +/- 15 nm red LED for 4 hrs measured after 24 hrs by MTT assay. The format is functional, cell-based. As to conditions: A-375, light or radiation study.

Activity calls are given as the source filed them. No cut-off for these calls is given here.

Take `CC(C)(C)C1=Cc2nc1ccc1[nH]c(cc1S(=O)(=O)NCCOCCO)c1nc(ccc3[nH]c2cc3C(C)(C)C)C(C(C)(C)C)=C1`: the outcome with A-375 [1], in the data set on B16 [2], with B16 [3], in the data set on A-375 [4], with A-375 [5] and with A-375 [10] was Active. Moreover, the outcome in the data set with A-375 [11] and in the data set with B16 [14] was Active. Besides, the Drug uptake result in [6] was “Active”. Besides, the Activity entry in data set [7] is reported as “Non-Toxic”; in data set [8] it was “Non-Toxic”; in data set [9], “Non-Toxic”; in data set [12], “Non-Toxic”; in [13], “Toxic”. Further, the DC50 in the data set on HeLa worked out at 49 nM; in the data set on A-375 [15], 192 nM.
